Structures can show the parent of a compound that is named as a salt.
The compounds below were run against T1, human CGT (ceramide galactosyltransferase), CHO/CGT lysate (Homo sapiens, UniProt Q16880) (assay: CGT enzyme assay, RapidFire/MS/MS readout with 0.01% Tween added (Table 1 ranges with two asterisks **)). Details: CGT enzymatic assay; range with two asterisks (**): RapidFire/MS/MS method with 0.01% Tween added.
T1 construct: Full-length human CGT cDNA was cloned into the BamH1/Xho1 site of pcDNA3.1 (+); expressed in transfected cells; host or cells: Chinese hamster ovary (CHO) cells; lysate prepared with M-PER
T1 sequence (Q16880 21-541): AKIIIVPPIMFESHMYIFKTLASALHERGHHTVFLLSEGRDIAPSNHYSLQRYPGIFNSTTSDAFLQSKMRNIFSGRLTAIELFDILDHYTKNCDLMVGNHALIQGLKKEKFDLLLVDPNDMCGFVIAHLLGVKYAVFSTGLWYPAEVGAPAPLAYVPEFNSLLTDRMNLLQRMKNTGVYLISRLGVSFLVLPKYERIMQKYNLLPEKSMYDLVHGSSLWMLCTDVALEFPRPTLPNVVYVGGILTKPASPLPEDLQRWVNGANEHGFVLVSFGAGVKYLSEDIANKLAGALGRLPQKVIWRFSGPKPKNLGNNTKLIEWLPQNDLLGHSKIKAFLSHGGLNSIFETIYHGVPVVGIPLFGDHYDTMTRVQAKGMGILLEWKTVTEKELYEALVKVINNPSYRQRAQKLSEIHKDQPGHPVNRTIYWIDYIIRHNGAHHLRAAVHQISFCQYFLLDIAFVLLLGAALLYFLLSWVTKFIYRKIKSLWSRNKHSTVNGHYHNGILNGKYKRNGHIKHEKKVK
Format: biochemical
Procedure: Full-length human CGT cDNA was cloned into the BamH1/Xho1 site of pcDNA3.1 (+) mammalian expression vector (V90-20, Invitrogen, Carlsbad, Calif.) and the plasmid was transfected into Chinese hamster ovary (CHO) cells. Lysate was prepared using M-PER (Mammalian Protein Extraction Reagent, ThermoFisher Scientific, Grand Island, N.Y.) in the presence of a protease inhibitor cocktail (P8340, Sigma, Saint Louis, Mo.). Each 100 mm dish (100% confluent, approximately 1×10^7 cells) was lysed with 250 μL of M-PER containing protease inhibitors. Protein concentration was determined using a Pierce BCA protein assay kit (ThermoFisher Scientific). Four micrograms of CHO/CGT lysate was incubated with various concentrations of a compound (0.001 μM-50 μM) in 10 mM HEPES (pH 7.2) containing 35 μM dioleoylphosphatidylcholine, 5 mM MgCl2, 5 mM MnCl2, 1% BSA, 15 mM KCl, 1 mM EGTA, 8 mM CHAPS, 10 μM C6-NBD-dihydro-ceramide and 17.5 μM UDP-galactose in a final reaction volume of 20 μL at 37° C. for 1 hour. The final concentration of DMSO was 0.5% in both compound-treated and mock-treated samples. Tween 80 (0.01%) was optionally added to the reaction mixture to help solubilize the compounds. Each individual reaction was diluted with 80 μL of methanol:acetronitrile (1:3) containing 5 μM N-docdecanoyl-NBD-galactosylceramide (internal standard) to stop the reaction. 200 μL H2O:acetonitile (1:1) was added to precipitate the protein. After sufficient mixing, the plates were centrifuged at 2469 g for 38 minutes, 200 μL of supernatant was transferred to a LC/MS 96-deep well plate and a second spin was performed at 2469 g for 10 minutes. The final supernatant was injected in triplicate for RapidFire/MS/MS analysis.
Quantitative Analysis Using the RapidFire/MS/MS Method:
The quantitative analysis of C6-NBD-dihydro-ceramide and C6-NBD-dihydro-galactosylceramide was performed on a Rapid Fire 360 high-throughput mass spectrometry system (Agilent Technologies, Palo Alto, Calif.) coupled with a API4000^+ triple quadrupole mass spectrometer (Applied Biosystems, Concord, Ontario, Canada). RapidFire software packages, including RapidFire Control panel, RapidFire UI and RapidFire Integrator (Agilent Technologies), were used to control the RapidFire instrument and to process data. Analyst 1.6.2 software packages (Applied Biosystems) were used to control the MS system and acquire MS data. […] of sample was loaded on a micro-scale C4 solid-phase extraction (SPE) cartridge (Agilent Technologies) and salts were removed using water supplemented with 0.1% formic acid at the flow rate of 1.5 mL/min for 3 sec. C6-NBD-dihydro-ceramide and C6-NBD-dihydro-galactosylceramide were co-eluted into the mass spectrometer using acetonitrile containing 0.1% formic acid at the flow rate of 1.0 mL/min for 3 sec. The total cycle time of one injection was 8 secs. The MS/MS detection was performed in ESI negative mode. The mass transition of C6-NBD-dihydro-galactosylceramide was m/z 752.6→678.6 using a −40 V collision energy, the mass transition of C6-NBD-dihydro-ceramide was m/z 590.6→115.8 using a −40 V collision energy and the mass transition of N-docdecanoyl-NBD-galactosylceramide was m/z 820.9→746.3 using a −45 V collision energy.
The C6-NBD-dihydro-galactosylceramide reading was normalized first by dividing the peak area of C6-NBD-dihydro-galactosylceramide by the peak area of the internal standard, N-docdecanoyl-NBD-galactosylceramide. IC50 values (see Table 1, where data ranges with one asterix (*) correspond to analysis using the RapidFire/MS/MS method, and data ranges with two asterixes (**) correspond to analysis using the RapidFire/MS/MS method with 0.01% Tween added) were generated from sigmoidal dose-response curves (variable slope) with GraphPad Prism software (GraphPad Software, Inc., San Diego, Calif.) using the normalized peak areas of C6-NBD-dihydro-galactosylceramide or the percent inhibition of C6-NBD-dihydro-galactosylceramide accumulation relative to DMSO control. […]
With `NC1CCN(C(=O)[C@@H](NS(=O)(=O)c2ccc3cc(OC4CCCC4)ccc3c2)C(F)(F)c2ccc(-c3ccc(Cl)cc3)cn2)CC1` [Compound 162-1, (R)—N-(3-(4-aminopiperidin-1-yl)-1-(5-(4-chlorophenyl)pyridin-2-yl)-1,1-difluoro-3-oxopropan-2-yl)-6-(cyclopentyloxy)naphthalene-2-sulfonamide] the IC50 was 1 to 10 µM.
Work on `N[C@@H]1CCN(C(=O)[C@@H](NS(=O)(=O)c2ccc(OCC3CCCCC3)cc2)C(F)(F)c2ccc(-c3ccc(Cl)cc3)cc2)C1` [Compound 155-1, N—((R)-3-((R)-3-aminopyrrolidin-1-yl)-1-(4′-chloro-[1,1′-biphenyl]-4-yl)-1,1-difluoro-3-oxopropan-2-yl)-4-(cyclohexylmethoxy)benzenesulfonamide trifluoroacetate] yielded an IC50 of less than 1 µM.
Compound `O=C([C@H](NS(=O)(=O)c1ccc2cc(OC3CCCC3)ccc2c1)C(F)(F)c1ccc(-c2ccc(Cl)cc2)cc1)N1CCC12CNC2` [Compound 191-2, (S)-N-(1-(4′-chloro-[1,1′-biphenyl]-4-yl)-1,1-difluoro-3-oxo-3-(1,6-diazaspiro[3.3]heptan-1-yl)propan-2-yl)-6-(cyclopentyloxy)naphthalene-2-sulfonamide] has an IC50 of 1 to 10 µM.
In the case of `N[C@H]1CCN(C(=O)[C@H](NS(=O)(=O)c2ccc3cc(OC4CCCC4)ccc3c2)C(F)(F)c2ccc(-c3ccc(Cl)cc3)cc2)C1` [Compound 148-2, N—((S)-3-((S)-3-aminopyrrolidin-1-yl)-1-(4′-chloro-[1,1′-biphenyl]-4-yl)-1,1-difluoro-3-oxopropan-2-yl)-6-(cyclopentyloxy)naphthalene-2-sulfonamide trifluoroacetate], the IC50 is reported as 10 to 30 µM.
`NC1CC2CCC(C1)N2C(=O)[C@@H](NC(=O)[C@@H](O)c1ccc(OCC2CCCCC2)cc1)C(F)(F)c1ccc(-c2ccc(Cl)cc2)cc1` (stereo partly drawn) [Compound 152-3, (2S)—N-((2R)-3-(3-amino-8-azabicyclo[3.2.1]octan-8-yl)-1-(4′-chloro-[1,1′-biphenyl]-4-yl)-1,1-difluoro-3-oxopropan-2-yl)-2-(4-(cyclohexylmethoxy)phenyl)-2-hydroxyacetamide trifluoroacetate] showed an IC50 of 1 to 10 µM.
`NC1CCN(C(=O)[C@H](NS(=O)(=O)c2ccc(OCC3CCCCC3)cc2)C(F)(F)c2ccc(C3(C(F)(F)F)CC3)cc2)CC1` [Compound 196-2, (S)-N-(3-(4-aminopiperidin-1-yl)-1,1-difluoro-3-oxo-1-(4-(1-(trifluoromethyl)cyclopropyl)phenyl)propan-2-yl)-4-(cyclohexylmethoxy)benzenesulfonamide] showed an IC50 of 10 to 30 µM.
For `NC1CC2CCC(C1)N2C(=O)[C@H](NS(=O)(=O)c1cc2ccc(OC3CCCC3)cc2s1)C(F)(F)c1ccc(Br)cc1` (stereo partly drawn) [Compound 167-2, N-((2 S)-3-(3-amino-8-azabicyclo[3.2.1]octan-8-yl)-1-(4-bromophenyl)-1,1-difluoro-3-oxopropan-2-yl)-6-(cyclopentyloxy)benzo[b]thiophene-2-sulfonamide trifluoroacetate], the IC50 was 1 to 10 µM.
For `N[C@H]1CCN(C(=O)[C@@H](NS(=O)(=O)c2ccc(OCC3CCCCC3)cc2)C(F)(F)c2ccc(-c3ccc(Cl)cc3)cc2)C1` [Compound 171-1, N—((R)-3-((S)-3-aminopyrrolidin-1-yl)-1-(4′-chloro-[1,1′-biphenyl]-4-yl)-1,1-difluoro-3-oxopropan-2-yl)-4-(cyclohexylmethoxy)benzenesulfonamide trifluoroacetate], the IC50 was 1 to 10 µM.
`N[C@@H]1CCN(C(=O)[C@@H](NS(=O)(=O)c2ccc3cc(OC4CCCC4)ccc3c2)C(F)(F)c2ccc(-c3ccc(Cl)cc3)cc2)CC1(F)F` [Compound 161-1, N—((R)-3-((R)-4-amino-3,3-difluoropiperidin-1-yl)-1-(4′-chloro-[1,1′-biphenyl]-4-yl)-1,1-difluoro-3-oxopropan-2-yl)-6-(cyclopentyloxy)naphthalene-2-sulfonamide trifluoroacetate] showed an IC50 of 1 to 10 µM.
`NC1CCN(C(=O)[C@H](NS(=O)(=O)c2ccc(OCC3CCCCC3)cc2)C(F)(F)c2ccc3c(c2)oc2cc(Cl)ccc23)CC1` [Compound 198-2, (S)-N-(3-(4-aminopiperidin-1-yl)-1-(7-chlorodibenzo[b,d]furan-3-yl)-1,1-difluoro-3-oxopropan-2-yl)-4-(cyclohexylmethoxy)benzenesulfonamide] showed an IC50 of 30 to 100 µM.
`C=C(c1ccc(C(F)(F)[C@H](NS(=O)(=O)c2ccc(OCC3CCCCC3)cc2)C(=O)N2CCC(N)CC2)cc1)C(F)(F)F` [Compound 193-1, (R)-N-(3-(4-aminopiperidin-1-yl)-1,1-difluoro-3-oxo-1-(4-(3,3,3-trifluoroprop-1-en-2-yl)phenyl)propan-2-yl)-4-(cyclohexylmethoxy)benzenesulfonamide] gave an IC50 of less than 1 µM.
In the case of `NC1CCN(C(=O)[C@H](NS(=O)(=O)c2ccc3cc(OC4CCCC4)ccc3c2)C(F)(F)c2ccc(C3(C(F)(F)F)CC3)cc2)CC1` [Compound 182-2, (S)—N-(3-(4-aminopiperidin-1-yl)-1,1-difluoro-3-oxo-1-(4-(1-(trifluoromethyl)cyclopropyl)phenyl)propan-2-yl)-6-(cyclopentyloxy) naphthalene-2-sulfonamide trifluoroacetate], the IC50 is reported as 10 to 30 µM.
`COc1cc(C(F)(F)[C@@H](NS(=O)(=O)c2ccc(OCC3CCCCC3)cc2)C(=O)N2CCC(N)CC2)ccc1-c1ccc(Cl)cc1` [Compound 146-2, (S)—N-(3-(4-aminopiperidin-1-yl)-1-(4′-chloro-2-methoxy-[1,1′-biphenyl]-4-yl)-1,1-difluoro-3-oxopropan-2-yl)-4-(cyclohexylmethoxy)benzenesulfonamide trifluoroacetate] was tested, and the IC50 was 1 to 10 µM.

Same assay, conditions: CGT enzyme assay, RapidFire/MS/MS method with 0.01% Tween added (range with two asterisks **)
Work on `COc1cc(C(F)(F)[C@@H](NS(=O)(=O)c2ccc3cc(OC4CCCC4)ccc3c2)C(=O)N2CCC(N)CC2)ccc1-c1ccc(Cl)cc1` [Compound 144-2, (S)—N-(3-(4-aminopiperidin-1-yl)-1-(4′-chloro-2-methoxy-[1,1′-biphenyl]-4-yl)-1,1-difluoro-3-oxopropan-2-yl)-6-(cyclopentyloxy) naphthalene-2-sulfonamide trifluoroacetate] yielded an IC50 of 1 to 10 µM.
`COc1cc(C(F)(F)[C@H](NS(=O)(=O)c2ccc(OCC3CCCCC3)cc2)C(=O)N2C3CCC2CC(N)C3)ccc1-c1ccc(Cl)cc1` (stereo partly drawn) [Compound 142-1, N-((2R)-3-(3-amino-8-azabicyclo[3.2.1]octan-8-yl)-1-(4′-chloro-2-methoxy-[1,1′-biphenyl]-4-yl)-1,1-difluoro-3-oxopropan-2-yl)-4-(cyclohexylmethoxy) benzenesulfonamide trifluoroacetate] was tested, and the IC50 was less than 1 µM.

Reference: patent US20190322676A1, “CERAMIDE GALACTOSYLTRANSFERASE INHIBITORS FOR THE TREATMENT OF DISEASE” (BioMarin Pharmaceutical Inc., priority 2016, published 2019)
